Here are results for nine molecules from patent US9649317B2, “Heterocyclic compounds and their use for the treatment of neurodegenerative tauopathies” (The Trustees of The University of Pennsylvania, priority 2012, dated 2017).

For data set [1], the system named is acetyl-tubulin (AcTub) in HEK/QBI 293 cells. The data set is described as follows: Microtubule stabilization assay: acetyl-tubulin (AcTub) ELISA after compound treatment. It is filed as cell-based. Particulars: for AcTub elevation compared with epoD: at 100 nM (FIG. 1); for change in acetyl-tubulin (AcTub), in words: relative to vehicle-treated cells (FIG. 1, Tables 5 and 6). From the text: The MT-stabilizing properties of triazolopyrimidines was investigated in a cell-free MT-polymerization assay, as well in a cell-based assay (HEK/QBI 293 cells) that measures changes in acetyl-tubulin (AcTub), a biomarker of stable MTs. (Laferriere, N.; MacRae, T.; Brown, D. Tubulin synthesis and assembly in differentiating neurons. Biochemistry and Cell Biology 1997, 75, 103-117; Black, M.; Baas, P.; Humphries, S. Dynamics of alpha-tubulin deacetylation in intact neurons. J Neurosci 1989, 9, 358).
The MT-stabilizing properties of additional triazolopyrimidines, phenylpyrimidines, and pyridazines was investigated in a cell-free MT-polymerization assay, as well in the aforementioned cell-based assay (HEK/QBI 293 cells) that measures changes in acetyl-tubulin (AcTub), a biomarker of stable MTs (Laferriere, N.; MacRae, T.; Brown, D. Tubulin synthesis and assembly in differentiating neurons. Biochemistry and Cell Biology 1997, 75, 103-117; Black, M.; Baas, P.; Humphries, S. Dynamics of alpha-tubulin deacetylation in intact neurons. J Neurosci 1989, 9, 358).
The HEK293 cell subclone, QBI293, was maintained in DMEM supplemented with 10% fetal calf or bovine serum, 1% penicillin/streptomycin antibiotic solution and 1% glutamine at 37° C. in 5% CO2. Cells were plated into 6-well plates at a density of 800,000 cells/well. […] Test compounds were added at multiple concentrations to the test wells and incubated for 4 h. Subsequently, the media was removed and the cells were washed with 1 ml of ice-cold phosphate-buffered saline (PBS). After removal of PBS, 0.2 ml of ice-cold RIPA (0.5% sodium deoxycholate, 0.1% SDS, 1% NP-40, 5 mM EDTA, pH 8.0) containing protease inhibitor mix (1 μg/ml each of pepstatin, leupeptin, TLCK, TPCK and trypsin inhibitor), 1 mM PMSF and 1 μM trichostatin A was added to the wells. The wells were then scraped using a cell scraper and pipetted into 1.5 ml microfuge tubes. The tubes were sonicated with a handheld sonicator at 20× on a power setting of 2, followed by centrifugation for 30 min at 15,000 rpm at 4° C. Supernatants were removed and quantified for protein concentration and the acetyl-tubulin levels were determined using an ELISA as described.
384-well plates were coated with 12G10α-tubulin antibody (Developmental Studies Hybridoma Bank at the University of Iowa; 10 μg/ml) in 30 μl of cold 0.1 M bicarbonate buffer. After overnight incubation at 4° C., the plates were washed with cold PBS, followed by the addition of Block-Ace solution and overnight incubation at 4° C. The blocking solution was removed and 10 μl of EC buffer (0.02 M sodium phosphate, pH 7.0, 2 mM EDTA, 0.4 M NaCl, 0.2% bovine serum albumin, 0.05% CHAPS, 0.4% BlockAce and 0.05% NaN3) was added to each well. Cell culture supernatants were diluted in EC buffer to final protein concentrations of 9, 3, 1.5 and 0.5 μg/30 μl, and 30 μl of each were added to wells in duplicate and plates were subsequently sealed. After overnight incubation at 4° C., the plates were aspirated and washed with cold PBS containing 0.05% Tween-20 and 0.05% thimerisol (PBS-Tween buffer), followed by addition of 30 μl/well of HRP-conjugated acetyl-tubulin antibody (6-11B-1 antibody from Sigma-Aldrich) that was prepared with a Peroxidase Labeling Kit following the manufacturer's instructions that was subsequently diluted 1:1000 in C buffer (0.02 M sodium phosphate, pH 7.0, 2 mM EDTA, 0.4 M NaCl, 1% bovine serum albumin and 0.05% thimerisol). The plates were incubated at room temperature for 4 h on a platform rocker, followed by washing with cold PBS-Tween buffer. Peroxidase substrate solution (30 μl) was added and the reaction was quenched after 5-10 min by addition of 30 μl of 10% phosphoric acid. Plates were read on a SpectraMax M5 plate reader at 450 nm. Because an acetyl-tubulin standard is not available, all data were normalized to a control treatment condition (e.g., no compound addition).
(ELISA stands for enzyme-linked immunosorbent assay.)

The conditions of data set [2]: mouse, in vivo; cited from earlier work.
Data set [3] has as its system AcTub-positive MTs in HEK/QBI293 cells. The data set can be described thus: Acetyl tubulin immunofluorescence. It is filed as cell-based. Particulars: 4 h incubation. As to the method: The HEK293 cell subclone, QBI293, was plated onto poly-D-lysine-coated glass coverslips at 50,000 cells/ml in DMEM supplemented with 10% fetal calf or bovine serum, 1% penicillin/streptomycin antibiotic solution and 1% glutamine and maintained overnight at 37° C. in 5% CO2. The next day, cells were left untreated or were treated with 100 nM epothilone D, 100 nM CNDR-51533 or 1 μM colchicine. After an additional 4 h of incubation at 37° C. in 5% CO2, cells were washed twice with PBS, and then fixed for 15 min in PBS containing 4% paraformaldehyde. The cells were again washed twice with PBS, and permeabilized with 0.1% Triton X-100 in PBS for 15 min. Following the Triton X-100 treatment, the cells were washed twice in PBS, and treated with PBS containing 3% bovine serum albumin for 1 h. Acetyl-tubulin antibody was subsequently added (1:1000 dilution) and incubated for 1 h. Cells were then washed cells 3×5 min with 0.1% Triton X-100 in PBS, and secondary antibody (goat-anti-mouse labeled with Alexa fluor 488 at 1:1000) was added and allowed to incubate for 1 h. […] Finally, the cells were washed once with PBS, followed by H2O, and the cover slips were mounted onto slides with Fluoromount G. Images were acquired on a microscope equipped for fluorescence detection. […]

Data set [4] concerns detyrosinated α-tubulin (GluTub). The data set can be described thus: Detyrosinated α-tubulin (GluTub) in the cell-based studies. Particulars: data not shown.
Data set [5] has as its system brain α-tubulin that is acetylated (AcTub). The data set is described as follows: Determination of brain acetyl-tubulin levels. It is filed as in vivo, CD1 mice. To be noted: wild-type mice, once-daily 1 mg/kg dose, 3 days (FIG. 14).
A short description of data set [6]: Determination of plasma and brain compound concentrations. It is filed as in vivo. Particulars: mouse, 1 hour after a 5 mg/kg intraperitoneal injection. As to the method: For utility in neurodegenerative diseases, MT-stabilizing compounds must cross the blood-brain barrier (BBB) and enter the brain. As summarized in Table 7, a number of examples show concentrations in the brain that exceed 0.5 μM an hour after administration of a 5 mg/kg dose, with brain-to-plasma concentration ratios of ˜0.3 or higher.
Mouse brains were homogenized in 10 mM ammonium acetate, pH 5.7 (1:2; w/v) using a handheld sonic homogenizer. Mouse plasma was obtained from blood that was collected into a 1.5 ml tube containing 0.5M EDTA solution and which was centrifuged for 10 minutes at 4500 g at 4° C. Aliquots (50 μl) of brain homogenates (50% w/v in 100 mM NH4OAC pH 5.75) or plasma were mixed with 0.2 ml of acetonitrile, centrifuged at 15,000 g, and the resulting supernatant was used for subsequent LC-MS/MS analysis. The LC-MS/MS system was comprised of an Aquity UPLC and a TQ MS that was controlled using MassLynx software (Waters Corporation, Milford, Mass., USA). Compounds were detected using multiple reaction monitoring (MRM) of their specific collision-induced ion transitions. Samples were separated on an Aquity BEH C18 column (1.7 μm, 2.1×50 mm) at 35° C. Operation was in positive electrospray ionization mode, with mobile phase A of 0.1% (v/v) formic acid, and B of acetonitrile with 0.1% (v/v) formic acid. Injections of 5 μl were separated at a flow rate of 0.6 mL/min using a gradient from 5% to 95% B over two minutes, followed by wash and re-equilibration steps. The MS was operated with a desolvation temperature of 450° C. and a source temperature of 150° C. Desolvation and source nitrogen gas flows were 900 L/hr and 50 L/hr, respectively. Source and MS/MS voltages were optimized for each compound using the MassLynx auto tune utility. To account for possible matrix effects on analytes, standard curves were generated for each compound from brain homogenate and plasma samples that had compound added at 24, 240, 2400 and 24000 nM. The standard curve samples were extracted and analyzed in an identical fashion as the corresponding tissue-derived samples, and peak areas were plotted against concentration and a linear regression curve was used to obtain estimated concentrations of the tissue-derived samples using the peak areas. In all cases, the tissue-derived sample peak areas fell within the linear portion of standard curves that were prepared and analyzed concurrently with the samples.

Setting [7] is: brain, ip, read-out: Brain nM (SD).
The mark [8] stands for this setting: plasma, ip, read-out: Plasma nM (SD).

By Kp is commonly meant tissue or fluid exposure divided by exposure in the circulation.

Entries after “also recorded” stand apart in the source; their conditions may differ. Read-outs that look alike come from different tables or passages of the source.

For the molecule `CNCCCOc1cc(F)c(-c2c(Cl)nc3ncnn3c2N[C@@H](C)C(F)(F)F)c(F)c1` [CNDR-51533, (S)-5-Chloro-6-(2,6-difluoro-4-(3-(methylamino)propoxy)phenyl)-N-(1,1,1-trifluoropropan-2-yl)-[1,2,4]triazolo[1,5-a]pyrimidin-7-amine, reference compound], in data set [1], the “AcTub elevation compared with epoD” value is given as “significantly more effective than epoD” and the “change in acetyl-tubulin (AcTub), in words” value (shortened to “change in acetyl-tubulin”) is recorded as “dose-dependent elevation in AcTub”. The “crossing of the blood-brain barrier (BBB), previously described agents” value in data set [2] is reported as “do not cross the BBB”. Besides, in data set [3] (100 nM, relative to control cells), the “AcTub immunofluorescence, MT structure” value is reported as “large increase in highly organized, AcTub-positive MTs”. Besides, the “change in detyrosinated α-tubulin (GluTub)” value (from here on “change … (GluTub)”) in data set [4] was “significant increases of detyrosinated α-tubulin (GluTub)”.
Consider `CNCCCOc1cc(F)c(-c2c(Cl)nc3ncnn3c2NCC(F)(F)F)c(F)c1` [CNDR-51534, 5-Chloro-6-(2,6-difluoro-4-(3-(methylamino)propoxy)phenyl)-N-(2,2,2-trifluoroethyl)-[1,2,4]triazolo[1,5-a]pyrimidin-7-amine], for which, in data set [1], the “AcTub elevation compared with epoD” value is “significantly more effective than epoD” and the “change in acetyl-tubulin” value is listed as “dose-dependent elevation in AcTub”. Moreover, the “change … (GluTub)” value in data set [4] is given as “significant increases of detyrosinated α-tubulin (GluTub)”.
Turning to `Fc1cc(F)c(-c2c(Cl)nc3ncnn3c2NCC(F)(F)F)c(F)c1` [CNDR-51539, 5-Chloro-N-(2,2,2-trifluoroethyl)-6-(2,4,6-trifluorophenyl)-[1,2,4]triazolo[1,5-a]pyrimidin-7-amine], the “change in acetyl-tubulin” value in data set [1] was “dose-dependent elevation in AcTub”. Besides, the “change … (GluTub)” value in data set [4] was “significant increases of detyrosinated α-tubulin (GluTub)”.
For the molecule `C[C@H](Nc1nc(-c2cnccn2)nc(Cl)c1-c1c(F)cc(F)cc1F)C(F)(F)F` [CNDR-51549, (S)-6-chloro-2-(pyrazin-2-yl)-5-(2,4,6-trifluorophenyl)-N-(1,1,1-trifluoropropan-2-yl)pyrimidin-4-amine], in data set [5], the “AcTub levels in the brain” value is “increase of AcTub levels in the brains; also recorded: increase in the fraction of brain α-tubulin that is acetylated”. Further, the concentration at 1 h in data set [6] (setting [7]) stood at 2870 nM; in data set [6] (setting [8]), 4950 nM. In data set [6], the Brain/Plasma is recorded as 0.58.
For the molecule `C[C@H](Nc1nc(-c2ccccn2)nc(Cl)c1-c1c(F)cc(F)cc1F)C(F)(F)F` [CNDR-51552, (S)-6-chloro-2-(pyridin-2-yl)-5-(2,4,6-trifluorophenyl)-N-(1,1,1-trifluoropropan-2-yl)pyrimidin-4-amine], the concentration at 1 h in data set [6] (setting [7]) was found to be 1480 nM; in data set [6] (setting [8]) it was 4320 nM. Moreover, in data set [6], the Brain/Plasma stood at 0.34.
The like results for `C[C@H](Nc1c(-c2c(F)cc(OCCCN(C)C)cc2F)c(Cl)nc2ncnn12)C(F)(F)F` [CNDR-51555, (S)-5-Chloro-6-(4-(3-(dimethylamino)propoxy)-2,6-difluorophenyl)-N-(1,1,1-trifluoropropan-2-yl)-[1,2,4]triazolo[1,5-a]pyrimidin-7-amine] were, in that order, 1350 nM, 4930 nM and 0.27.
As for `C[C@H](Nc1nc(-c2ccccn2)nc(Cl)c1-c1c(F)cc(OCCCN(C)C)cc1F)C(F)(F)F` [CNDR-51561, (S)-6-Chloro-5-(4-(3-(dimethylamino)propoxy)-2,6-difluorophenyl)-2-(pyridin-2-yl)-N-(1,1,1-trifluoropropan-2-yl)pyrimidin-4-amine], the concentration at 1 h in data set [6] (setting [7]) was found to be 701 nM; in data set [6] (setting [8]) it was 2120 nM. Moreover, the Kp at 1 h in data set [6] (brain/plasma, ip) was determined as 0.33.
On to `COc1cc2c(c(OC)c1OC)-c1ccc(OC)c(=O)cc1[C@@H](NC(C)=O)CC2` [colchicine], for which the AcTub immunofluorescence staining result in data set [3] (1 μM, data not shown) is given as “significant loss of AcTub staining”.
“(S)-6-Chloro-5-(2,6-difluoro-4-(3-(methylamino)propoxy)phenyl)-2-(pyridin-2-yl)-N-(1,1,1-trifluoropropan-2-yl)pyrimidin-4-amine [CNDR-51562]”: in data set [1] (4 h treatment), the “dose of maximal effect (AcTub increase)” value worked out at 0.1 µM. The “Fold-Increase in AcTub” value in data set [1] (4 h treatment, at the dose of maximal effect, relative to control) was 6.2 fold.
